Data on eleven compounds can be found in patent US4923852A, “Aminoalkyl naphthalenediols as host resistance enhancers against viral infections” (Merck & Co., Inc., priority 1987, dated 1990).

Entries after “also recorded” stand apart in the source; their conditions may differ. Where two headings read alike, the source gives them in different places.

In data set [1] the test system is AIDS or AIDS-related complex (ARC). The settings on record: clinical; cited from earlier work.
For data set [2] the following is noted: in vivo, cited from earlier work.
The conditions of data set [3]: cited from earlier work.
The test system of data set [4] is T cell levels. The note with it: 13 AIDS patients with perpetually swollen glands; cited from earlier work.
In data set [5] the test system is HIV. The settings on record: clinical; cited from earlier work.
For data set [6], the system named is HIV reverse transcriptase. The settings on record: cited from earlier work.
Data set [7] deals with Pseudomonas aeruginosa. Briefly: In vivo immunopotentiation against challenge with lethal doses of Pseudomonas aeruginosa, cyclophosphamide-immunocompromised mouse. Set-up: species or system mouse (random outbred albino CFl female). The settings on record: 250 mg/kg cyclophosphamide i.p., 4 days prior to challenge. The procedure: An immunocompromised mouse model, established by intraperitoneal treatment of random outbred albino CFl female mice (ca. 25g) with 250 mg/kg body weight of cyclophosphamide (CY) 4 days Prior to bacterial challenge with Pseudomonas aeruginosa, was used as the assay system. In this model, test compounds were injected only once (2 hours) after CY treatment. After bacterial challenge, LD50 's (50% lethal doses) were determined. Increased LD50 's in treated mice over controls indicated a return to normality. The LD50 for untreated or vehicle-treated mice was routinely 10^6 -10^7 colony forming units (CFU) of P. aeruginosa organisms. After CY treatment, the LD50 was reduced to 10^1 to 10^2 CFU's. The protection afforded by test compound (Protective Index) was determined by calculating the number of LD50 's of protection of treated animals over the LD50 of CY controls.

Data set [8] relates to reverse transcriptase in several retroviruses. The note with it: in vitro; cited from earlier work.
For data set [9], the system named is HIV. The settings on record: cited from earlier work.
In data set [10] the test system is AIDS-related Kaposi's sarcoma. The settings on record: some AIDS-related Kaposi's sarcoma cases; cited from earlier work.

With `CO[C@H]1/C=C/O[C@@]2(C)Oc3c(C)c(O)c4c(c3C2=O)C2=NC3(CCN(CC(C)C)CC3)NC2=C(NC(=O)/C(C)=C\C=C\[C@H](C)[C@H](O)[C@@H](C)[C@@H](O)[C@@H](C)[C@H](OC(C)=O)[C@@H]1C)C4=O` [Ansamycin, rifabutin], in data set [1], the “efficacy in AIDS or ARC patients” value was “some efficacy in treating AIDS patients with an opportunistic infection caused by the bacterium Mycobacterium aviumintracellulare”.
Regarding `Cc1cn([C@H]2C[C@H](N=[N+]=[N-])[C@@H](CO)O2)c(=O)[nH]c1=O` [Azidothymidine, 3'-azido-3'-deoxythymidine], the “efficacy in AIDS or ARC patients” value in data set [1] is “promise in prolonging lives of patients with AIDS or AIDS-related complex (ARC)”. Besides, the oral absorption result in data set [2] (po) is on record as “Well absorbed orally”. In addition, in data set [2], the “half-life in the body” value is recorded as “relatively short half-life” and the “penetration of central nervous system” value is “effectively penetrates central nervous system”. Also, in [3] (clinical), the “adverse / toxic effects in humans” value is “some toxicity, with anemia and headaches”.
In the case of `CC(C)(N1CC1C#N)N1CC1C(N)=O` (stereo not shown) [Azimexon], the “efficacy in AIDS or ARC patients” value in data set [1] is “improvements in symptoms and immune function in patients with ARC but not AIDS”. The “adverse / toxic effects in humans” value in [3] (clinical) is “only toxic effect was mild hemolysis”.
As for `CC(C)(S)[C@@H](N)C(=O)O` [D-Penicillamine, 3-mercapto-D-valine], the “effect on T cell levels” value in data set [4] is “temporarily depressed T cell levels”. Moreover, the “effect on HIV reproduction / viral replication in humans” value in [5] is “Inhibits HIV reproduction in humans; also recorded: suppressed the virus”.
In the case of `O=C(O)P(=O)(O)O` [Foscarnet, trisodium phosphonoformate], in data set [6], the “inhibition of HIV reverse transcriptase” value is reported as “Inhibits HIV reverse transcriptase activity in vitro at levels pharmacologically acceptable in vivo”. In addition, in [3] (in vivo), the “adverse / toxic effects in humans” value is recorded as “serious side effects”.
With `CC(=O)Nc1ccc(C(=O)O)cc1.CC(=O)Nc1ccc(C(=O)O)cc1.CC(=O)Nc1ccc(C(=O)O)cc1.CC(O)CN(C)C.CC(O)CN(C)C.CC(O)CN(C)C.O=c1[nH]cnc2c1ncn2[C@@H]1O[C@H](CO)[C@@H](O)[C@H]1O` [Inosine pranobex, p-Acetamidobenzoic acid salt of dimethylaminoisopropanol: inosinate complex], the “effect on immune function in patients” value in [1] is “improve immune function in ARC patients”.
As to `NC(=O)c1ncn([C@@H]2O[C@H](CO)[C@@H](O)[C@H]2O)n1` [Ribavirin, 1-β-D-ribofuranosyl-1,2,4-triazole-3-carboxamide], in data set [1], the “effect on immune function in patients” value is listed as “improved immune function in AIDS patients”. The “effect on HIV reproduction / viral replication in humans” value in data set [5] is reported as “inhibited viral replication”. Further, in [3] (in vivo), the safety profile result was “acceptable” and the tolerability result was “well tolerated”.
Consider `Cc1ccc(C(=O)Nc2ccc(S(=O)(=O)O)c3cc(S(=O)(=O)O)cc(S(=O)(=O)O)c23)cc1NC(=O)c1cccc(NC(=O)Nc2cccc(C(=O)Nc3cc(C(=O)Nc4ccc(S(=O)(=O)O)c5cc(S(=O)(=O)O)cc(S(=O)(=O)O)c45)ccc3C)c2)c1` [Suramin], for which, in data set [6], the “inhibition of HIV reverse transcriptase” value was “Potent inhibitor of HIV reverse transcriptase”. Further, the “efficacy in AIDS or ARC patients” value in [1] is given as “little or no evidence of clinical improvement or immunologic recovery”.
For the compound `O=P1(N(CCCl)CCCl)NCCCO1` (stereo not shown) [cyclophosphamide], the “LD50 of P. aeruginosa after CY treatment” value in data set [7] was 10^1 to 10^2 CFU.
For the compound “ammonium 21-tungsto-9-antimoniate [HPA-23]”, in data set [8], the “inhibition of reverse transcriptase in several retroviruses” value is “Inhibits reverse transcriptase in several retroviruses in vitro”. Also, the “effect on HIV infectivity / growth” value in data set [9] is recorded as “some tendency to check the growth of HIV”. The “efficacy in AIDS or ARC patients” value in [1] is on record as “no therapeutic benefit has been documented in AIDS patients”.
Turning to α-Interferon, the “effect on HIV infectivity / growth” value in [9] is “Checks the growth of HIV in vitro”. Moreover, the tumor regression entry in data set [10] was “induced tumor regression in some AIDS-related Kaposi's sarcoma cases”.
